According to patent US10954549B2, “Detection and classification of an anticoagulant using a clotting assay” (Haemonetics Corporation, priority 2014, dated 2021):

Assays:
[1] = test system: blood from healthy volunteers; test: Thromboelastography R time of spiked blood in the presence of the FXa reagent; assay type: biochemical, human; settings: in vitro spiking, increasing concentrations
Experimental: Blood from healthy volunteers known not to be taking any oral anticoagulant and without any other significant health issues are analyzed using the FXa or the Ecarin reagent in a TEG® hemostasis analyzer. The FXa reagent (i.e., the Factor Xa reagent) is used to detect the presence (or absence) of an anticoagulant in the blood component being tested. In absence of any oral anticoagulant, the FXa reagent will accelerate the clotting process and result in a very short R-time. In presence of direct thrombin inhibitors and/or anti-Factor Xa anticoagulant(s), the process is slowed down and will cause elongation of the R-time. This difference in R-time is utilized to detect the presence of the oral anticoagulant. The R-time generated from multiple donors was used to construct a reference range. Blood was spiked with either direct thrombin inhibitors or anti-Xa(s) at different concentrations and analyzed using the FXa reagent or the Ecarin reagent. The drug concentrations chosen represent the published therapeutic ranges for these two classes of drugs. This assay was repeated in multiple donors to account for possible donor variations.

citrated whole blood [2] = test: RapidTEG (rTEG) test of blood spiked with anticoagulant; assay type: biochemical, human
Source text: (§1) The TEG clotting assay was used to determine if low, normal, and high doses of dabigatran, rivaroxaban, and apixaban could be detected in blood spiked with these compounds. Three oral anticoagulants (OAC), namely dabigatran, rivaroxaban, and apixaban, were spiked into blood obtained from 14 healthy volunteer human donors. For each OAC tested, citrated blood from three donors was spiked with three different concentrations of the active drug (i.e., the compound). The spiked blood samples and control samples spiked with diluent were tested with the TEG® 5000 Thrombelastograph® Hemostasis Analyzer (Haemonetics Corporation, Braintree, Mass., USA) using the Kaolin and RapidTEG® reagents (Haemonetics). Each sample was run in triplicate. All samples were tested with and without ecarin (purchased from Enzyme Research Laboratories, South Bend, IN). This study was IRB approved and all donors were over 18 and signed informed consent forms.
The RapidTEG (rTEG) test incorporated both tissue factor and kaolin to generate the conventional kaolin parameters as well as the TEG-ACT parameter, which is measured in seconds. The TEG-ACT is equivalent to the Activated Clotting Time (see Chavez J. J. et al., Anesth. Analg. 99:1290-1294, 2004) and has a normal range of 86 to 118 seconds. A prolonged TEG-ACT time indicates slower clot formation. In addition, velocity curves derived from the above mentioned kaolin and rTEG tests were plotted using TEG software. These curves represent the speed of clot propagation (MRTG, Maximum Rate of Thrombus Generation; and TMRTG, Time to Maximum Rate of Thrombus Generation) (see FIG. 3B).
For the RapidTEG (rTEG) test, the reagent was reconstituted with 20 μL diluent water, and allowed to stand for 5 minutes per manufacturer instructions. Ten μL of this reconstituted reagent was added to the TEG cup with 20 μl 0.2M CaCl2 for recalcification.
(§2) 340 μL of the citrated blood sample was added to the cup with these two reagents, and the contents of the cup were mixed 3 times by drawing the contents of the cup up into the pipette and redispensing it into the cup. The test was started immediately after mixing and allowed to run until the MA parameter had defined. The rTEG with ecarin test was performed as the rTEG test above, using 20 μL of an ecarin/CaCl2 solution (0.16M CaCl2; 19EU/mL ecarin).

citrated whole blood [3] = test: TEG kaolin with ecarin test of spiked blood; assay type: biochemical, human
Source text: as §1
For the kaolin test, 1 mL of citrated blood sample was mixed with kaolin and 340 microliters (μL) of this blood was added to a TEG cup containing 20 μL of 0.2M CaCl2 for recalcification. The kaolin with ecarin test was performed in a similar fashion, using 20 μL of an ecarin/CaCl2 solution (0.16 M CaCl2; 19 EU/mL ecarin).
Ecarin is derived from the venom of the saw-scaled viper, Echis carinatus. Ecarin activates prothrombin (the precursor of thrombin—see FIG. 5). This activation of prothrombin by ecarin produces meizothrombin, a prothrombin-thrombin intermediate which has a low level of procoagulant enzymatic activity.
Healthy human volunteers (who are not being administered any anticoagulant), donated blood. Following donation, the blood collected from the donors (which was added to citrate to prevent clotting) was divided into portions, and portions of the blood were spiked with either nothing, dabigatran, or rivaroxaban. The portions were then assayed using thromboelastography, including assays performed in the presence of ecarin.

citrated whole blood [4] = test: TEG Kaolin test of blood spiked with anticoagulant; assay type: biochemical, human
Source text: as §1
Dabigatran stock was prepared from the active dabigatran moiety (Alsachim, France) by dissolution in 0.1M HCl and further dilution in 1:1 DMSO:H20. […] Tubes of citrated blood were spiked with this dabigatran stock to create final concentrations of 500, 200, and 50 ng/mL of citrated whole blood.
Rivaroxaban stock was prepared by agitation of a 20 mg Xarelto tablet (Jannsen, Titusville, N.J.) in a 1:1 DMSO: H20 solution, which was diluted to a final concentration of 20 ng/uL rivaroxaban in 1:1 DMSO:H20. Tubes of citrated blood were spiked with this rivaroxaban stock to create final concentrations of 500, 89, and 22 ng/mL in citrated whole blood. […] Apixaban stock was prepared in a similar manner from a 2.5 mg Eliquis tablet (Bristol-Myers Squibb, New York, N.Y.), with final concentrations of 1000, 500, and 250 ng/mL in whole blood. Apixaban is approved for prevention of VTE in elective hip or knee replacement surgery (2.5 mg BID) and for prevention of stroke and systemic embolism in patients with non-valvular AF (5 mg BID) (see Bristol-Myers SP, EEIG. apixaban summary of product characteristics). […] Control samples, prepared for each tested drug, included a solvent control containing only citrated blood and the diluent used to dilute the drug stock, and an unadulterated citrate blood tube.
Testing was performed on TEG-5000 analyzers (Haemonetics Corp., Braintree, Mass., USA) using Kaolin vials, 0.2M CaCl2, RapidTEG (rTEG) vials, diluent water, and disposable clear cups and pins provided by the manufacturer (Haemonetics, Braintree, Mass.), and ecarin (Enzyme Research Laboratories, South Bend, Ind.). All testing was performed in triplicate at each dose, and allowed to continue until the MA (maximum amplitude) parameter defined. The various components of the TEG tracing are depicted in FIG. 3A. The Kaolin test generates an R parameter, which is measured in minutes, and is the time elapsed from the initiation of the test until the point where the onset of clotting provides enough resistance to produce a 2 mm amplitude reading on the TEG tracing. This parameter represents the initiation phase of coagulation related to the function of enzymatic clotting factors. The R parameter has a normal range of 5 to 10 min for kaolin. A prolonged R time indicates slower clot formation. K is a measurement of the time interval from the split point to the point where fibrin cross-linking provides enough clot resistance to produce a 20 mm amplitude reading. The α angle is the angle formed by the slope of a tangent line traced from the R to the K time and a central line measured in degrees. K time and the α angle denote the rate at which the clot strengthens, and is representative of thrombin's cleaving of the available fibrinogen into fibrin. The MA indicates the point at which clot strength reaches its maximum amplitude, measured in millimeters on the TEG tracing, and reflects the end result of maximal platelet-fibrin interaction via the GPIIb-IIIa receptors (see Khurana S et al., J Lab Clin Med. 130:401-411, 1997). […]

citrated whole blood [5] = test: rTEG with ecarin test of spiked blood; assay type: biochemical, human
Source text: as §1, §2

[6] = cited from earlier work
porcine plasma = test: TEG 6S DTI channel R-time, porcine experimental trauma model; assay type: in vivo
Experimental: The TEG®6S system (Haemonetics Corp., Braintree, Mass.) is based on viscoelasticity measurements using resonance frequency and disposable multi-channel microfluidic cartridges. Blood and plasma from healthy volunteers were spiked with dabigatran in the therapeutic range (in increasing concentrations) and tested with an OAC cartridge with an ecarin based, direct thrombin inhibitor (DTI) channel. This channel was also evaluated with porcine plasma from an experimental trauma model (n=6) where dabigatran levels were measured with dilute TT (Hemoclot®). TEG 6s R-time (reaction time) was correlated to the drug levels.

## COc1ccc(-n2nc(C(N)=O)c3c2C(=O)N(c2ccc(N4CCCCC4=O)cc2)CC3)cc1 [apixaban, Apixaban]
[1]
  R-time compared to the reference range, FXa reagent: dose dependent elongation of the R-time
Citrated whole blood [2]
  K, α and MRTG parameters versus control or between studied concentrations: did not show any statistical difference
  TMRTG parameter sensitivity to presence of drug: not
Citrated whole blood [2]; all studied concentrations
  MA values versus control: did not change
Citrated whole blood [2]; all tested concentrations (except rivaroxaban 22 ng/mL)
  TEG ACT parameter versus control group: significantly different
Citrated whole blood [2]; medium and higher concentrations
  ACT time versus non-spiked blood sample: significantly higher
Citrated whole blood [3]; FIGS. 8A-8C
  R time in the presence versus absence of ecarin: equivalent and significant shortening of R time
Citrated whole blood [3]; kaolin test
  MA values with ecarin relative to samples run without ecarin: statistically different
Citrated whole blood [3]; treated and control groups
  R, K and TMRTG values on addition of ecarin to the kaolin test: significant decrease
  α and MRTG values on addition of ecarin to the kaolin test: significant increase
Citrated whole blood [4]; 250 ng/mL, still within normal range
  MA versus control group: significantly different from the control group
Citrated whole blood [4]; highest concentration tested
  R time versus non-spiked blood sample: significantly higher
Citrated whole blood [4]; three concentrations per drug, Example 1
  R, K, α, and MRTG parameters, statistical significance versus control: able to detect the presence of all tested concentrations
Citrated whole blood [5]
  TEG-ACT times on addition of ecarin to the RapidTEG test: significantly decreases
Citrated whole blood [5]; any of the studied concentrations
  RapidTEG α angle when ecarin was added: did not change
Citrated whole blood [5]; highest and lowest concentrations
  RapidTEG K values when ecarin was added: significantly decreased
[6]; in vivo
  half-lives compared: shorter half-lives than dabigatran
[6]; oral dose of 20 mg
  Cmax: 460 ng/mL
[6]; patients with severe renal impairment compared to healthy volunteers
  increased half-life: up to 44%

B1: idarucizumab: reversal agent that reverses the anticoagulant effect of dabigatran (Boehringer Ingelheim) (antibody, chains of the INN, looked up, V domains shown)
VH: QVQLQESGPGLVKPSETLSLTCTVSGFSLTSYIVDWIRQPPGKGLEWIGVIWAGGSTGYNSALRSRVSITKDTSKNQFSLKLSSVTAADTAVYYCASAAYYSYYNYDGFAYWGQGTLVTVSS
VL: DVVMTQSPLSLPVTLGQPASISCKSSQSLLYTDGKTYLYWFLQRPGQSPRRLIYLVSKLDSGVPDRFSGSGSGTDFTLKISRVEAEDVGVYYCLQSTHFPHTFGGGTKVEIK
Porcine plasma; after dabigatran, trauma model, baseline 3.4±0.6 min
  R-time after administration of the reversal agent: 3.6 ± 0.6 min
Porcine plasma; five separate swine plasma samples, FIG. 16
  R time upon administration of the reversal agent: returned to baseline
